Data published in US7728146B2, “Enzyme inhibitors” (Probiodrug AG, priority 2006, dated 2010).
Entries after “also recorded” stand apart in the source; their conditions may differ.

Columns and labels:
[1] = system: liver cell carcinoma cell line Hep-G2; experiment: Cytotoxicity screening and LD50 determination on Hep-G2 (LDH, CytoTox-One); assay type: cell-based; conditions: for cytotoxic effects (summary in words) / Cytotox 100 μM (%) HEPG2 / Viability 100 μM (%) HEP-G2 / Observed cytotox: 100 μM; for cytotoxic effects (summary in words): Hep-G2; for Cytotox 100 μM (%) HEPG2 / Viability 100 μM (%) HEP-G2: 24 h; for Cytotox 100 μM (%) HEPG2: LDH activity in cell culture media, lysed untreated cells = 100%; for Viability 100 μM (%) HEP-G2: LDH of lysed cells, untreated control = 100%; for Observed cytotox: Hep-G2, observation of the cells
Description: Cytotoxicity of the compounds may be screened using the liver cell carcinoma cell line Hep-G2.
(§1) After 24 h of cultivation in a 96 well plate (50 000 cells/well) compounds (dissolved in DMSO) are added and cytotoxicity and vitality of the cells are analysed after another 24 h of cultivation using the CytoTox-One Homogenoeous membrane toxicity assay (Promega).
Three concentrations (100 μM, 2 μM, 40 nM) of each compound are analysed in triplicates. The final DMSO concentration was 1%.
(§2) For cytotoxicity the LDH activity in the cell culture media after 24 h of incubation are analysed. The untreated control is set to 0% cytotoxicity. For the 100% value LDH activity of lysed untreated cells are analysed.
(§3) For viability cell culture media are removed from the cells and all cells are lysed using the lysis buffer. LDH activity is determined and untreated control is set to 100% viability.
(§4) For determination of LD50 the liver carcinoma cell line HEP-G2 and the neuroblastoma cell line SY5Y may be used. The effect of 8 serial dilutions of the compounds (highest concentration 1 mM) is investigated as described above.
The cytotoxicity of certain example compounds (in each case prepared by preparative synthesis) was screened using Hep-G2 cells. Compounds were tested in concentrations of 100 μM, 2 μM and 40 nM.

DP IV [2] = biological target: T1, DP IV (Homo sapiens, UniProt P27487); experiment: DP IV inhibition IC50, parallel-synthesis compounds tested directly following synthesis (without purification); assay type: biochemical; design: IC50 DP4; other: tested directly following parallel synthesis, without purification; compounds of formula (Ib) from parallel synthesis, tested directly following synthesis; conditions: DP IV inhibition; compounds of formula (Ib) from parallel synthesis, tested directly following synthesis (without purification); read-out: IC50
T1 sequence (P27487 whole entry): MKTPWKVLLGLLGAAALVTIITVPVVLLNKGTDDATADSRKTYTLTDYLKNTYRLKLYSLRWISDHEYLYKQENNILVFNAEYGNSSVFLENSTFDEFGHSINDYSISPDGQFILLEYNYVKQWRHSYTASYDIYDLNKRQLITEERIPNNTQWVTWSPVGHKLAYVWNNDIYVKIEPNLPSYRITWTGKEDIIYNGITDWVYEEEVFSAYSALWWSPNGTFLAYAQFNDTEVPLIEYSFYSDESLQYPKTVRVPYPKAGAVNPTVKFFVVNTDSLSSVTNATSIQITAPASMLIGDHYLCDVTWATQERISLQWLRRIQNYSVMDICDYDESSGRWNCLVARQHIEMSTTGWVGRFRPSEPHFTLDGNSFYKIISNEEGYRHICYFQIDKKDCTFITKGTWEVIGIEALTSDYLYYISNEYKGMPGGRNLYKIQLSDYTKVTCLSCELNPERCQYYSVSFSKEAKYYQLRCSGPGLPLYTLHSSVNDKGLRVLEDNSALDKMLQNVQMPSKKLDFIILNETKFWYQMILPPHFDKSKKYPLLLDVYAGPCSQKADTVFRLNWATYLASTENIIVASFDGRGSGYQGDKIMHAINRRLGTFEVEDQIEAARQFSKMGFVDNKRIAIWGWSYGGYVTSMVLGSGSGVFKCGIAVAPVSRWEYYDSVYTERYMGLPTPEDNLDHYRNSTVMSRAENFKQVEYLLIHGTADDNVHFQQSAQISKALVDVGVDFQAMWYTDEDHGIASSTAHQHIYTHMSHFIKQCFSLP
Outline: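 Porcine kidney or recombinant human enzyme (~40-50 μU/ml, HEPES buffer) hydrolysing Gly-Pro-pNA at room temperature, with 5% DMSO final; 11-point 1:2 dilutions from 100 μM final, in duplicate. pNA release read at 405 nm over ~18 min; slopes vs solvent control give residual activity, and IC50 comes from a 4-parameter fit.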

[3] = biological target: dipeptidyl peptidase (DP IV) (UniProt P27487); experiment: Determination of IC50 against DP IV (hydrolysis of Gly-Pro-pNA); assay type: biochemical, porcine kidney or recombinant human; conditions: compounds obtained by preparative synthesis
Description: Determination of IC50 Against DP IV
Substances are screened for inhibition of dipeptidyl peptidase (DP IV) by their ability to inhibit the hydrolysis of the DP IV specific substrate Glycyl-Prolyl-4-Nitroanilide (Gly-Pro-pNA). All compounds are diluted in DMSO and IC50 will be determined with 11 serial dilutions (1:2) starting with an final concentration of 100 μM. The final DMSO concentration in the assay is 5% (v/v). The method was automated using a Tecan Genesis Freedom liquid handler and a Genius Pro (Tecan) microplate reader.
A stock solution of 0.102 M HEPES is prepared. Ionic strength (I=0.32) is adjusted by KCl and pH (pH 7.6) by KOH.
2.16 mM solution of Gly-Pro-pNA in deionized water is prepared.
All samples are dissolved in DMSO preparing a 10 mM stock solution.
DP IV from porcine kidney (pDP IV) or recombinant human DP IV (rhDP IV) is diluted in HEPES buffer to a final activity of approximately 40-50 μU*ml^−1. The DP IV is stored in a cooling rack (4° C.) on the liquid handler.
The assay may becarried out at room temperature using Freedom liquid handler connected with a Genios Pro microplate reader. Each sample is measured in duplicate. Each sample stock solution is prediluted with DMSO in a ratio of 1:5 in a polypropylen 96-well plate. From this predilution 10 serial (1:2) dilutions in DMSO are prepared. 13.5 μl of the 11 DMSO dilutions and DMSO alone are transferred to the measurement microplate (duplicates) and 86.5 μl water, 100 μl HEPES buffer and 50 μl substrate solution are added to each well. The enzymatic reaction is started by addition of 20 μl enzyme solution to each well, and then the microplate is immediately transferred to the microplate reader.
After short mixing (20 s) the release of 4-Nitroanilin (pNA) is monitored at 405 nm for 30 cycles (approx. 18 min).
Post assay calculations are done by the Magellan (Tecan) and Graphit Software. The linear slopes are calculated for each well and averaged for the duplicates. The residue activities are calculated in relation to a sample containing only solvent instead of inhibitor and expressed in %. Residue activities are plotted against the log of inhibitor concentrations and IC50 is calculated by an 4-parameter fitting ranging from 0 to 100%.

DP IV [4] = biological target: T1, DP IV; experiment: Ki and inhibition type, DP IV; assay type: biochemical; conditions: compounds obtained by preparative synthesis
Description: Measurement of DP IV activities for Ki determination is carried out as described for IC50. For Ki determination samples were analysed in triplicates. 7 serial dilutions of the inhibitor (range calculated from the IC50 determination) in water are analyzed with 4 serial dilutions of the substrate.
Data are analysed by non-linear regression to the inhibitor equations using Graphit software. Ki-value and inhibition type are determined using the inhibitor equation (competitive, partiell competitive, non-competitive) which gives the best fitting results. […]

DPII = DPII (Homo sapiens, UniProt Q9UHL4); experiment: DPII assay; assay type: biochemical; conditions: for Selectivity DPII(IC50)/DPIV(Ki): ratio IC50 DPII / Ki DP IV
Description: (§5) Determination of IC50 values for DPII and DP9 are done similarly as described for DP IV.
For DPII instead of the HEPES buffer a 0.2 M sodium acetate buffer pH 5.5 is used. As substrate Gly-Pro-AMC is used in a final concentration of 1 mM.

DP9 = DP9 (Homo sapiens, UniProt Q86TI2); experiment: DP9 assay; assay type: biochemical; conditions: for IC50: Gly Pro-AMC 0.25 mM; for Selectivity DP9(IC50)/DPIV(Ki): ratio IC50 DP9 / Ki DP IV
Chain of DP9 (Q86TI2 whole entry, species assumed): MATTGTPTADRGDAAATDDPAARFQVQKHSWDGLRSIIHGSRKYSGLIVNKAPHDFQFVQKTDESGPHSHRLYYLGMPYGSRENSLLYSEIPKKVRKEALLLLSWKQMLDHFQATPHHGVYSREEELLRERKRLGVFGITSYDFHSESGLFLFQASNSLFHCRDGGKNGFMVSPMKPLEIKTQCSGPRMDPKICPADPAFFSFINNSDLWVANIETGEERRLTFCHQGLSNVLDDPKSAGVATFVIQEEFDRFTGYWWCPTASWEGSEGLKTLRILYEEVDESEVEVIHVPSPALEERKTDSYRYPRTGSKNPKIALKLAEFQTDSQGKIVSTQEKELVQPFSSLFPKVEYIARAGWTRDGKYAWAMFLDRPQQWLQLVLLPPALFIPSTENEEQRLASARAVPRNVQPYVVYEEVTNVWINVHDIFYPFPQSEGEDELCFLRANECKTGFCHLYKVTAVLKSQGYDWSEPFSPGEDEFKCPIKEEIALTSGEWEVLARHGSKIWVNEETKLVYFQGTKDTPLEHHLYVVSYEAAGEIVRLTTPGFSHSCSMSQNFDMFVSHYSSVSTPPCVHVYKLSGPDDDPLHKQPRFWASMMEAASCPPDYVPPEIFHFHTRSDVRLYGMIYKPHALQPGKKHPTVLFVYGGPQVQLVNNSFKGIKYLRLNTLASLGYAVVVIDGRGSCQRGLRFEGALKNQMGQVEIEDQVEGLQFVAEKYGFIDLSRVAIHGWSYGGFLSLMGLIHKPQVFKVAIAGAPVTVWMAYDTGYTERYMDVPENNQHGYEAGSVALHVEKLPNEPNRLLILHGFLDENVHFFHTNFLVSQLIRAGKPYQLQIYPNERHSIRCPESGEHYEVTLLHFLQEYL
Description: as §5
For DP9 Gly Pro-AMC is used as substrate in a final concentration of 0.25 mM.

[5] = system: neuroblastoma cell line SY5Y; experiment: LD50 determination on SY5Y (LDH); assay type: cell-based; conditions: 8 serial dilutions, highest concentration 1 mM
Description: as §1, §2, §3, §4

[6] = sodium acetate buffer pH 5.5, Gly-Pro-AMC 1 mM
[7] = 8 serial dilutions, highest concentration 1 mM

| Structure (SMILES) | cytotoxic effects (summary in words) [1] | IC50 (DP IV [2]) [µM] | IC50 [3] [µM] | Ki (DP IV [4]) [µM] | Selectivity DPII(IC50)/DPIV(Ki) (DPII) | IC50 (DPII; [6]) [µM] | IC50 (DP9) [µM] | Selectivity DP9(IC50)/DPIV(Ki) (DP9) | Cytotox 100 μM (%) HEPG2 [1] [%] | Viability 100 μM (%) HEP-G2 [1] [%] | other results |
| --- | --- | --- | --- | --- | --- | --- | --- | --- | --- | --- | --- |
| Cc1ccccc1Cn1cnc(-c2ccc(Cl)cc2Cl)c1C(C)N (centres unmarked) [Example 15b, 1-[5-(2,4-Dichloro-phenyl)-3-(2-methyl-benzyl)-3H-imidazol-4-yl]-ethylamine] | No cytotoxic effects | 19 | – | – | – | – | – | – | – | – | – |
| NCc1c(-c2ccc(Cl)cc2Cl)ncn1CCCCCO [Example 38b, 5-[5-aminomethyl-4-(2,4-dichloro-phenyl)-imidazol-1-yl]-pentan-1-ol] | – | 1.9 | 0.848 | 0.0411 | 1,474 | 60.6 | 46.5 | 1,131 | 0 | 106.7 | – |
| NCc1c(-c2ccc(Cl)cc2Cl)ncn1Cc1ccccc1OC(F)(F)F [Example 129b, C-[5-(2,4-dichloro-phenyl)-3-(2-trifluoromethoxy-benzyl)-3H-imidazol-4-yl]-methylamine] | – | – | 0.07 | 0.00654 | 237 | 1.55 | 53.2 | 8,135 | – | – | Ki (DPII): 4.42 µM; LD50 Viability HEP-G2 [1, 7]: 0.15 mM; LD50 cytotox HEP-G2 [1, 7]: 0.16 mM; LD50 Viability SY5Y [5]: 0.13 mM; LD50 cytotox SY5Y [5]: 0.21 mM |
| COc1ccc(Cn2cnc(-c3ccc(Cl)cc3Cl)c2CN)c(OC)c1 [Example 8b, C-[5-(2,4-Dichloro-phenyl)-3-(2,4-dimethoxy-benzyl)-3H-imidazol-4-yl]-methylamine] | No cytotoxic effects | 12.7 | – | – | – | – | – | – | – | – | – |
| CC(C)CCn1cnc(-c2ccc(Cl)cc2Cl)c1CN [Example 7b, C-[5-(2,4-Dichloro-phenyl)-3-(3-methyl-butyl)-3H-imidazol-4-yl]-methylamine] | Strong cytotoxic effects; also recorded: strongest cytotoxicity | 8.2 | – | – | – | – | – | – | – | – | – |
| CC(C)(C)Cn1cnc(-c2ccc(Cl)cc2Cl)c1CN [Example 11b, C-[5-(2,4-dichloro-phenyl)-3-(2,2-dimethyl-propyl)-3H-imidazol-4-yl]-methylamine] | No cytotoxic effects | 6.4 | 2.58 | 0.0575 | 1,457 | 83.8 | – | – | 4.6 | 113.1 | – |
| NCc1c(-c2ccc(Cl)cc2Cl)ncn1CCc1c[nH]c2ccccc12 [Example 1b, C-{5-(2,4-Dichloro-phenyl)-3-[2-(1H-indol-3-yl)-ethyl]-3H-imidazol-4-yl}-methylamine] | Strong cytotoxic effects | 3.7 | – | – | – | – | – | – | – | – | – |
| NCc1c(-c2ccc(Cl)cc2Cl)ncn1CCCn1ccnc1 [Example 104b, C-[5-(2,4-dichloro-phenyl)-3-(3-imidazol-1-yl-propyl)-3H-imidazol-4-yl]-methylamine] | – | 5.5 | 0.408 | 0.0302 | 9,172 | – | 17.5 | 579 | 2.9 | 104.1 | IC50 (DPII; values >1e−4 are extrapolated values): 277 µM |
| CC(C)(C)CCn1cnc(-c2ccc(Cl)cc2Cl)c1CN [Example 23b, C-[5-(2,4-dichloro-phenyl)-3-(3,3-dimethyl-butyl)-3H-imidazol-4-yl]-methylamine] | – | 8.2 | 0.903 | 0.0236 | – | – | 56.1 | 2,377 | 56.8 | 98.6 | Observed cytotox [1]: 50% lysis, 100% |
| CC(N)c1c(-c2ccc(Cl)cc2Cl)ncn1CCc1ccccc1 (centres unmarked) [Example 2b, 1-[5-(2,4-Dichloro-phenyl)-3-phenethyl-3H-imidazol-4-yl]-ethylamine] | No cytotoxic effects | 32.5 | – | – | – | – | – | – | – | – | – |
| NCc1c(-c2ccc(Cl)cc2Cl)ncn1Cc1ccc2c(c1)OCO2 [Example 125b, C-[3-benzo[1,3]dioxol-5-ylmethyl-5-(2,4-dichloro-phenyl)-3H-imidazol-4-yl]-methylamine] | – | – | 0.371 | 0.038 | 471 | 17.9 | 74.7 | 1,966 | 10.6 | 88.9 | – |
| NCc1c(-c2ccc(Cl)cc2Cl)ncn1CC12CC3CC(CC(C3)C1)C2 [Example 14b, C-[3-Adamantan-1-ylmethyl-5-(2,4-dichloro-phenyl)-3H-imidazol-4-yl]-methylamine] | No cytotoxic effects | 19 | – | – | – | – | – | – | – | – | – |
| NCc1c(-c2ccc(Cl)cc2Cl)ncn1CCc1ccccc1Cl [Example 21b, C-[3-[2-(2-chloro-phenyl)-ethyl]-5-(2,4-dichloro-phenyl)-3H-imidazol-4-yl]-methylamine] | – | 1.9 | 0.514 | 0.0294 | 157 | 4.62 | 1.28 | 44 | 97.1 | 9.8 | Ki (DPII): 3.18 µM; Ki (DP9): 0.925 µM; Observed cytotox [1]: 100% lysis |
| CCCCCn1cnc(-c2ccc(Cl)cc2Cl)c1CN [Example 12b, C-[5-(2,4-Dichloro-phenyl)-3-pentyl-3H-imidazol-4-yl]-methylamine] | No cytotoxic effects | 6.4 | – | – | – | – | – | – | – | – | – |
| Cc1cnc(Cn2cnc(-c3ccc(Cl)cc3Cl)c2CN)cn1 [27b, C-[5-(2,4-Dichloro-phenyl)-3-(5-methyl-pyrazin-2-ylmethyl)-3H-imidazol-4-yl]-methylamine] | – | 19.9 | – | – | – | – | – | – | – | – | – |
